For the assay, the target named is T1, ERα (Homo sapiens, UniProt P03372).
T1 construct: host or cells: MCF7
T1 sequence (P03372 1-595): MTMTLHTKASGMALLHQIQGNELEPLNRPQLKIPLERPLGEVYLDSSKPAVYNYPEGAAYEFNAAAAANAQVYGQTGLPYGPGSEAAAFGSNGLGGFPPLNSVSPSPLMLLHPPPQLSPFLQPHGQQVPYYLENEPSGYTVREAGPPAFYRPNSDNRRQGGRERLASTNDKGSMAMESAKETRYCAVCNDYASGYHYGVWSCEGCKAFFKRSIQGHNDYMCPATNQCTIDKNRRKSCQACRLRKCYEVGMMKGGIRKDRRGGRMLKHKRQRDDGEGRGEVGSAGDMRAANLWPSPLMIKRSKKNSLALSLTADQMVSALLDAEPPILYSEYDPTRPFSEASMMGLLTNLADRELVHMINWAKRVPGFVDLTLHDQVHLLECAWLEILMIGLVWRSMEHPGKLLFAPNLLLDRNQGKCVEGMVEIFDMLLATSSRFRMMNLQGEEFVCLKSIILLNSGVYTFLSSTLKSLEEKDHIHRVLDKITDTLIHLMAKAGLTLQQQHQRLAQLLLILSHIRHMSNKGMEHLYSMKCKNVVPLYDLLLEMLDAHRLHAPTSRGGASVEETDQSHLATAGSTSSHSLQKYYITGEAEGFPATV
The experiment in a line: Estrogen receptor degradation activity: breast cancer cell ERα in cell western assay (MCF7 cells). In kind it is cell-based. Particulars: for % Degradation At 0.3 μM: 4 hours, relative to fulvestrant 0.1 μM positive control; for DC50: 4 hours post compound addition, concentration which degrades 50% of the estrogen receptor, read-out: Degradation IC50. An outline of the steps: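 In-cell western readout: ERα immunofluorescence (Alexa 488) normalised to DNA signal (Syto-64) after formalin fixation. Compounds dosed for 4 h on MCF7 cells in stripped-serum, phenol-red-free medium over nine 1:5 steps, 0.3 to […] final; fulvestrant 0.1 μM control. IC50 in nM for 50% ERα degradation.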

Counter-ions that a name gives are not always drawn.

As to `Cl.O=C(O)c1ccc2c(c1)CCCC(c1ccc(Cl)cc1Cl)=C2c1cc(F)c(C=C2CN(CCCF)C2)c(F)c1` [Example 105, 8-(2,4-dichlorophenyl)-9-(3,5-difluoro-4-((1-(3-fluoropropyl)azetidin-3-ylidene)methyl)phenyl)-6,7-dihydro-5H-benzo[7]annulene-3-carboxylic acid], the “% Degradation At 0.3 μM” value is 94% and the DC50 turned out to be 0.1 nM.
In the same order, the values of `Cl.O=C(O)c1ccc2c(c1)CCC(c1ccc(Cl)cc1Cl)=C2c1ccc(C=C2CN(CCCF)C2)cc1` [Example 106, 6-(2,4-dichlorophenyl)-5-(4-((1-(3-fluoropropyl)azetidin-3-ylidene)methyl)phenyl)-7,8-dihydronaphthalene-2-carboxylic acid hydrochloride] are 93% and 1 nM.
For `O=C(O)c1ccc2c(c1)CCCC(c1cccc(Cl)c1C(F)(F)F)=C2c1ccc(C=C2CN(CCC(F)(F)F)C2)cc1` [Example 107, 8-(3-chloro-2-(trifluoromethyl)phenyl)-9-(4-((1-(3,3,3-trifluoropropyl)azetidin-3-ylidene)methyl)phenyl)-6,7-dihydro-5H-benzo[7]annulene-3-carboxylic acid], the “% Degradation At 0.3 μM” value stood at 93% and the DC50 was 1.3 nM.
In the same order, the values of `O=C(O)c1ccc2c(c1)CCCC(c1ccc(F)cc1C(F)(F)F)=C2c1ccc(C=C2CN(CCC(F)(F)F)C2)cc1` [Example 108, 8-(4-fluoro-2-(trifluoromethyl)phenyl)-9-(4-((1-(3,3,3-trifluoropropyl)azetidin-3-ylidene)methyl)phenyl)-6,7-dihydro-5H-benzo[7]annulene-3-carboxylic acid] are 92% and 1.2 nM.
Regarding `O=C(O)c1ccc2c(c1)CCCC(c1ccc(Cl)cc1Cl)=C2c1ccc(C=C2CN(CCC(F)(F)F)C2)cc1` [Example 109, 8-(2,4-dichlorophenyl)-9-(4-((1-(3,3,3-trifluoropropyl)azetidin-3-ylidene)methyl)phenyl)-6,7-dihydro-5H-benzo[7]annulene-3-carboxylic acid], the “% Degradation At 0.3 μM” value is listed as 91% and the DC50 worked out at 1.4 nM.
`Cc1cccc(C2=C(c3ccc(C=C4CN(CCC(F)(F)F)C4)cc3)c3ccc(C(=O)O)cc3CCC2)c1C(F)(F)F` [Example 110, 8-(3-methyl-2-(trifluoromethyl)phenyl)-9-(4-((1-(3,3,3-trifluoropropyl)azetidin-3-ylidene)methyl)phenyl)-6,7-dihydro-5H-benzo[7]annulene-3-carboxylic acid]: the “% Degradation At 0.3 μM” value is reported as 93% and the DC50 turned out to be 2.9 nM.
The like results for `Cc1c(C2=C(c3ccc(C=C4CN(CCC(F)(F)F)C4)cc3)c3ccc(C(=O)O)cc3CCC2)ccc(Cl)c1F` [Example 111, 8-(4-chloro-3-fluoro-2-methylphenyl)-9-(4-((1-(3,3,3-trifluoropropyl)azetidin-3-ylidene)methyl)phenyl)-6,7-dihydro-5H-benzo[7]annulene-3-carboxylic acid] were, in that order, 90% and 1 nM.
In the same order, the values of `Cc1c(C2=C(c3ccc(C=C4CN(CCC(F)(F)F)C4)cc3)c3ccc(C(=O)O)cc3CCC2)ccc(F)c1F` [Example 112, 8-(3,4-difluoro-2-methylphenyl)-9-(4-((1-(3,3,3-trifluoropropyl)azetidin-3-ylidene)methyl)phenyl)-6,7-dihydro-5H-benzo[7]annulene-3-carboxylic acid] are 100% and 27.8 nM.
In the case of `Cc1cc(C(F)(F)F)ccc1C1=C(c2ccc(C=C3CN(CCC(F)(F)F)C3)cc2)c2ccc(C(=O)O)cc2CCC1` [Example 113, 8-(2-methyl-4-(trifluoromethyl)phenyl)-9-(4-((1-(3,3,3-trifluoropropyl)azetidin-3-ylidene)methyl)phenyl)-6,7-dihydro-5H-benzo[7]annulene-3-carboxylic acid], the “% Degradation At 0.3 μM” value is recorded as 90% and the DC50 was 0.3 nM.
The like results for `O=C(O)c1ccc2c(c1)OCCC(c1ccc(Cl)cc1Cl)=C2c1ccc(C=C2CN(CCCF)C2)cc1` [Example 114, 4-(2,4-Dichlorophenyl)-5-(4-((1-(3-fluoropropyl)azetidin-3-ylidene)methyl)phenyl)-2,3-dihydrobenzo[b]oxepine-8-carboxylic acid hydrochloride] were, in that order, 91% and 0.4 nM.
Turning to `Cl.O=C(O)c1ccc2c(c1)SCCC(c1ccc(Cl)cc1Cl)=C2c1ccc(C=C2CN(CCCF)C2)cc1` [Example 115, 4-(2,4-dichlorophenyl)-5-[4-[[1-(3-fluoropropyl)azetidin-3-ylidene]methyl]phenyl]-2,3-dihydro-1-benzothiepine-8-carboxylic acid; hydrochloride], the “% Degradation At 0.3 μM” value is reported as 100% and the DC50 is 120 nM.
For `Cc1cccc(C2=C(c3ccc(C=C4CN(CCC(F)F)C4)cc3)c3ccc(C(=O)O)cc3CCC2)c1C(F)(F)F` [Example 116, 9-(4-((1-(3,3-difluoropropyl)azetidin-3-ylidene)methyl)phenyl)-8-(3-methyl-2-(trifluoromethyl)phenyl)-6,7-dihydro-5H-benzo[7]annulene-3-carboxylic acid], the “% Degradation At 0.3 μM” value amounted to 90% and the DC50 stood at 0.7 nM.
In the same order, the values of `[2H]C([2H])(CC(F)F)N1CC(=Cc2ccc(C3=C(c4ccc(Cl)cc4Cl)CCCc4cc(C(=O)O)ccc43)cc2)C1` [Example 117, 8-(2,4-dichlorophenyl)-9-(4-((1-(3,3-difluoropropyl-1,1-d2)azetidin-3-ylidene)methyl)phenyl)-6,7-dihydro-5H-benzo[7]annulene-3-carboxylic acid] are 90% and 0.9 nM.
The like results for `Cc1cccc(C2=C(c3ccc(C=C4CN(CCCF)C4)cc3)c3ccc(C(=O)O)cc3CCC2)c1C(F)(F)F` [Example 118, 9-(4-((1-(3-fluoropropyl)azetidin-3-ylidene)methyl)phenyl)-8-(3-methyl-2-(trifluoromethyl)phenyl)-6,7-dihydro-5H-benzo[7]annulene-3-carboxylic acid] were, in that order, 93% and 0.4 nM.
The like results for `Cc1ccc(C(F)(F)F)c(C2=C(c3ccc(C=C4CN(CCCF)C4)cc3)c3ccc(C(=O)O)cc3CCC2)c1` [Example 119, 9-(4-((1-(3-fluoropropyl)azetidin-3-ylidene)methyl)phenyl)-8-(5-methyl-2-(trifluoromethyl)phenyl)-6,7-dihydro-5H-benzo[7]annulene-3-carboxylic acid] were, in that order, 94% and 0.9 nM.
Turning to `FCCCN1CC(=Cc2ccc(C3=C(c4ccccc4Cl)CCCc4ccccc43)cc2)C1` [Example 120, 3-(4-(8-(2-chlorophenyl)-6,7-dihydro-5H-benzo[7]annulen-9-yl)benzylidene)-1-(3-fluoropropyl)azetidine], the “% Degradation At 0.3 μM” value came out at 98% and the DC50 worked out at 2.68 nM.
In the same order, the values of `O=C(O)c1ccc2c(c1)CCCC(c1cc(C(F)(F)F)ccc1F)=C2c1ccc(C=C2CN(CCCF)C2)cc1` [Example 121, 8-(2-fluoro-5-(trifluoromethyl)phenyl)-9-(4-((1-(3-fluoropropyl)azetidin-3-ylidene)methyl)phenyl)-6,7-dihydro-5H-benzo[7]annulene-3-carboxylic acid] are 94% and 0.7 nM.
